Measurements published in patent US12084479B2, “Modified antimicrobial peptide derived from an arginine-rich domain” (priority 2016, dated 2024).
In brackets after ≈: the same amount, converted by molar mass. Where two headings read alike, the source gives them in different places. Where a SMILES comes first, the peptide text is derived from it. Where no end group is shown, it is not given here. [ ]: non-standard residue; d: D form.

Columns and labels:
E. coli = format: cell-based, Escherichia coli
Method: (§1) The antimicrobial activities of HBcARD peptides were tested using a number of bacterial strains, including Pseudomonas aeruginosa Migula strains (ATCC 27853, ampicillin-resistant and ATCC 9027, ampicillin-resistant), Klebsiella pneumoniae strain (ATCC 13884), Shigella dysenteriae Xen27 (Caliper Co.), Escherichia coli strain (ATCC 25922), Staphylococcus aureus subsp. strains (ATCC 25923, methicillin-resistantATCC 29213, methicillin-resistant and ATCC 19636, methicillin-resistant) and Acinetobacter baumannii strains (ATCC 17978, ATCC 17978 CR, ATCC19606, ATCC 19606 CR, TCGH 45530 and TCGH 46709). Clinical isolates TCGH 45530 and TCGH 46709 were obtained from Tzu-Chi Buddhist General Hospital (TCGH) in Taiwan, and were identified using the Vitek system (Biomerieux Vitek, Inc., Hazelwood, MO, USA). See Chang et al. (2012), J Microbiol Immunol Infect 45:37-42 doi:10.1016/j.jmii.2011.09.019.
(§2) L- and D-HBcARD peptides were purchased from Yao-Hong Biotechnology Inc. (Taipei, Taiwan). Antimicrobial activity was determined as described. See, Chen et al., 2013. Briefly, bacteria were grown in MH broth (Difco) to mid-logarithmic phase at 37° C., and were diluted to 10^6 CFU (colony formation unit)/ml in phosphate buffer (10 mM sodium phosphate and 50 mM sodium chloride, pH 7.2). Peptides were serially diluted in the same buffer. Fifty microliters (μl) of bacteria were mixed with fifty μl of peptides at varying concentrations, followed by incubation at 37° C. for 3 hours without shaking. At the end of incubation, bacteria were placed on Mueller-Hinton broth agar plates, and allowed to grow at 37° C. overnight for measurement of minimal bactericidal concentration (MBC).
(§3) All peptides were tested in triplicate.

[1] = Protease resistance assay (serum stability), SDS-PAGE and Green Angel staining; format: in vitro ADME; conditions: 5% bovine serum, 37° C.
Method: To compare the stability of the 37-mer L- and D-HBcARD peptides against serum protease degradation, we performed a protease resistance assay. After incubation with 5% bovine serum at 37° C. for 3 hours, more than 80% of L-HBcARD peptide was no longer detectable by staining with Green Angel on SDS-PAGE. In contrast, the signal intensity of the D-HBcARD peptide was not reduced under the same condition.
L- and D-HBcARD peptides (0.5 nmol) were mixed with MBC buffer in the presence or absence of 5% serum collected from bovine, mouse and human origins. After incubation at 37° C. for 3 hours, the amounts of peptides surviving the protease digestion were determined by SDS-PAGE electrophoresis and staining with Green Angel. The images were quantified using image J software and the intensities were normalized with the no serum control. To investigate the effect of serum on the antimicrobial activity of HBcARD peptides, L- and D-HBcARD peptides at their respective MBC concentrations were incubated with S. aureus ATCC19636 strain (10^6 CFU/ml) at 37° C. for three hours. Bacteria were plated on MH agar and the antimicrobial activity was determined by colony formation.

S. aureus = format: cell-based, Staphylococcus aureus
Method: as §1, §2, §3

S. aureus ATCC 19636 = experiment: Immunogenicity: sepsis model in peptide-immunized mice; format: in vivo, ICR mice; conditions: immunized three times with 5 mg/kg peptide
Method: FIG. 4 is a set of graphs showing comparison of in vivo protection activities between L- and D-form HBcARD peptides in a mouse sepsis model infected with S. aureus. (A) Three week-old ICR mice were inoculated with S. aureus (4×10^6 CFU/mouse) and i.p. injected with PBS, L-HBcARD, or D-HBcARD at 2 hours post-inoculation. Each group contained ten mice. (B) and (C) Three week-old ICR mice were immunized with L- and D-HBcARD peptides (5 mg/kg), respectively, at day 0, 3 and 6. On day 14, the mice were inoculated with S. aureus (4×10^6 CFU/mouse) and i.p. injected with PBS, L-HBcARD or D-HBcARD (10 mg/kg) at 1 hour post-inoculation, respectively. Another group of mice were treated with PBS in parallel as a control. Each group of animals contained five mice. *P<0.05; ***P<0.0001; ns, no significance.
To investigate whether repeated treatments with the 37-mer HBcARD peptides may compromise the efficacy by inducing neutralization antibody in vivo, we immunized 3-week old mice three times with L- and D-HBcARD peptides, respectively, prior to bacterial infection. […]
To investigate the potential immunogenicity of HBcARD peptides, we determined the in vivo antimicrobial activity of HBcARD peptide in peptide-immunized mice. […] Mortality was monitored daily for 7 days following the bacterial inoculation.

A. baumannii = format: cell-based, Acinetobacter baumannii
Method: as §1, §2, §3

S. dysenteriae Xen27 = format: cell-based, Shigella dysenteriae
Method: as §1
L- and D-HBcARD peptides were purchased from Yao-Hong Biotechnology Inc. (Taipei, Taiwan). Antimicrobial activity was determined as described. See, Chen et al., 2013. Briefly, bacteria were grown in MH broth (Difco) to mid-logarithmic phase at 37° C., and were diluted to 10^6 CFU (colony formation unit)/ml in phosphate buffer (10 mM sodium phosphate and 50 mM sodium chloride, pH 7.2). Peptides were serially diluted in the same buffer. […]

P. aeruginosa = format: cell-based, Pseudomonas aeruginosa
Method: as §1, §2, §3

[2] = tested on: human red blood cells (hRBCs); experiment: Hemolytic activity; format: cell-based; conditions: up to 460 mg/L, 37° C., one hour
Method: In the hemolysis assay, human RBCs were incubated with serially-diluted doses (0 to 460 mg/L) of D-HBcARD, L-HBcARD, or melittin, at 37° C. for one hour.
The hemolytic activities of peptides were determined by hemolysis against human red blood cells (hRBCs). Human blood was obtained in EDTA-containing tube and was centrifuged at 450 g for 10 min. The pellet was washed three times with PBS buffer, and a solution of 10% hRBCs was prepared. hRBCs solution was mixed with serial dilutions of peptides in PBS buffer, and the reaction mixtures were incubated for 1 h at 37° C. After centrifugation at 450 g for 10 min, the percentage of hemolysis was determined by measuring the absorbance at the wavelength of 405 nm of the supernatant. Blank and 100% hemolysis were determined in PBS buffer and in the presence of 1% Triton X-100, respectively.

[3] = tested on: colistin-resistant A. baumannii TCGH 46709; experiment: Mouse lung infection model, intra-tracheal inoculation; format: in vivo, BALB/c mice; conditions: 5 mg/kg/day ip.
Method: FIG. 6 is a graph showing in vivo protection efficacies of 150-177C and 150-177Q peptides in a BALB/c mouse lung infection model. Colistin-resistant A. baumannii was inoculated via intra-tracheal route.
BALB/c mice (n=8/group) were intra-tracheally inoculated with colistin-resistant A. baumannii TCGH 46709 (3.4×10^8 cfu/mouse). These lung-infected mice were ip. treated with colistin (5 mg/kg/day) or D-150-177C (5 and 10 mg/kg/day), respectively.

K. pneumoniae = format: cell-based, Klebsiella pneumoniae
Method: as §1, §2, §3

Compound | Minimal bactericidal concentration (E. coli) [µg/mL] | signal intensity of the peptide after serum incubation ([1]; 3 hours) | MBC (S. aureus) [µg/mL] | neutralization activity induced by prior immunizations (S. aureus ATCC 19636) | MBC (A. baumannii) [µg/mL] | Minimal bactericidal concentration (S. dysenteriae Xen27; S. dysenteriae Xen27) [µg/mL] | Minimal bactericidal concentration (P. aeruginosa) [µg/mL] | hemolytic activity [2] | survival outcome [3] | metabolised at 3 h ([1]; read-out: peptide no longer detectable by staining with Green Angel on SDS-PAGE) [%] | Minimal bactericidal concentration (S. aureus) [µg/mL] | Minimal bactericidal concentration (K. pneumoniae) [µg/mL] | Minimal bactericidal concentration (S. dysenteriae Xen27) [µg/mL]
CC(C)[C@H](NC(=O)[C@@H](NC(=O)[C@@H](N)[C@@H](C)O)C(C)C)C(=O)N[C@H](CCCNC(=N)N)C(=O)N[C@H](CCCNC(=N)N)C(=O)N[C@H](CCCNC(=N)N)C(=O)NCC(=O)N[C@H](CCCNC(=N)N)C(=O)N[C@@H](CO)C(=O)N1CCC[C@H]1C(=O)N[C@H](CCCNC(=N)N)C(=O)N[C@H](CCCNC(=N)N)C(=O)N[C@H](CCCNC(=N)N)C(=O)N[C@H](C(=O)N1CCC[C@H]1C(=O)N[C@@H](CO)C(=O)N1CCC[C@H]1C(=O)N[C@H](CCCNC(=N)N)C(=O)N[C@H](CCCNC(=N)N)C(=O)N[C@H](CCCNC(=N)N)C(=O)N[C@H](CCCNC(=N)N)C(=O)N[C@@H](CO)C(=O)N[C@@H](CCC(N)=O)C(=O)N[C@@H](CO)C(=O)N1CCC[C@H]1C(=O)N[C@H](CCCNC(=N)N)C(=O)N[C@H](CCCNC(=N)N)C(=O)N[C@H](CCCNC(=N)N)C(=O)N[C@H](CCCNC(=N)N)C(=O)N[C@@H](CO)C(=O)N[C@@H](CCC(N)=O)C(=O)N[C@@H](CO)C(=O)N[C@H](CCCNC(=N)N)C(=O)N[C@@H](CCC(=O)O)C(=O)N[C@@H](CO)C(=O)N[C@@H](CCC(N)=O)C(=O)N[C@@H](CS)C(=O)O)[C@@H](C)O [D-HBcARD, TVVrrrGrSPrrrTPSPrrrrSQSPrrrrSQSrESQC] (H-TVV[dR][dR][dR]G[dR]SP[dR][dR][dR]TPSP[dR][dR][dR][dR]SQSP[dR][dR][dR][dR]SQS[dR]ESQC-OH; N-terminus and C-terminus assumed) | 73.6 (≈ 16 µM) | not reduced | 4.6 to 9.2 | no neutralization activity | 2.3 to 4.6 | 73.6 (≈ 16 µM) | 4.6 (≈ 1 µM) | no hemolytic activity |  |  |  |  | 
colistin |  |  |  |  |  |  |  |  | died at 60 hours post-inoculation |  |  |  | 
TVVRRRGRSPRRRTPSPRRRRSQSPRRRRSQSRESQC [L-HBcARD] | 18.4 |  |  | no neutralization activity |  |  |  | no hemolytic activity |  | > 80 | 18.4 | 9.2 | 18.4
